Data taken from the supplement of paper PMC13380429.

Experiments:
Conditions in all cases: 72 h
U2OS [1] = assay: cell viability relative to DMSO; higher = less toxic
Caco-2 [2] = assay: as above
HepG2 [3] = assay: as above
Calu-3 [4] = assay: as above
Vero E6 [5] = assay: as above
U2OS [6] = assay: drug sensitivity score (DSS) for viability; higher = more toxic; extreme values may be limits of the assay
Caco-2 [7] = assay: as above
HepG2 [8] = assay: as above
Calu-3 [9] = assay: as above
Vero E6 [10] = assay: as above
U2OS [11] = assay: relative viability EC50 (midpoint between 100% and the lowest measured viability); higher = less toxic
Caco-2 [12] = assay: as above
HepG2 [13] = assay: as above
Calu-3 [14] = assay: as above
Vero E6 [15] = assay: as above

Row | SMILES | cell viability (U2OS [1]; 1 nM) | cell viability (U2OS [1]; 10 nM) | cell viability (U2OS [1]; 100 nM) | cell viability (U2OS [1]; 1000 nM) | cell viability (U2OS [1]; 10000 nM) | cell viability (Caco-2 [2]; 1 nM) | cell viability (Caco-2 [2]; 10 nM) | cell viability (Caco-2 [2]; 100 nM) | cell viability (Caco-2 [2]; 1000 nM) | cell viability (Caco-2 [2]; 10000 nM) | cell viability (HepG2 [3]; 1 nM) | cell viability (HepG2 [3]; 10 nM) | cell viability (HepG2 [3]; 100 nM) | cell viability (HepG2 [3]; 1000 nM) | cell viability (HepG2 [3]; 10000 nM) | cell viability (Calu-3 [4]; 1 nM) | cell viability (Calu-3 [4]; 10 nM) | cell viability (Calu-3 [4]; 100 nM) | cell viability (Calu-3 [4]; 1000 nM) | cell viability (Calu-3 [4]; 10000 nM) | cell viability (Vero E6 [5]; 1 nM) | cell viability (Vero E6 [5]; 10 nM) | cell viability (Vero E6 [5]; 100 nM) | cell viability (Vero E6 [5]; 1000 nM) | cell viability (Vero E6 [5]; 10000 nM) | drug sensitivity score (U2OS [6]) | drug sensitivity score (Caco-2 [7]) | drug sensitivity score (HepG2 [8]) | drug sensitivity score (Calu-3 [9]) | drug sensitivity score (Vero E6 [10]) | relative viability EC50 (U2OS [11]) | relative viability EC50 (Caco-2 [12]) | relative viability EC50 (HepG2 [13]) | relative viability EC50 (Calu-3 [14]) | relative viability EC50 (Vero E6 [15])
1 | CO[C@H]1/C=C/O[C@@]2(C)Oc3c(C)c(O)c4c(O)c(c(/C=N/N=C/N5CCCCC5)c(O)c4c3C2=O)NC(=O)/C(C)=C\C=C\[C@H](C)[C@H](O)[C@@H](C)[C@@H](O)[C@@H](C)[C@H](OC(C)=O)[C@@H]1C | 102% | 106% | 99% | 99.6% | 91.6% | 85.4% | 96.2% | 84.9% | 90.9% | 83.1% | 98.5% | 101% | 93.3% | 113% | 108% | 107% | 102% | 105% | 98.2% | 101% | 102% | 100% | 98% | 98.2% | 90.9% | 0 | 0 | 0 | 0 | 0 | > 10 µM | > 10 µM | > 10 µM | > 10 µM | > 10 µM
2 | O=CN1CCC(C(=O)NCCN2CCC(=C3c4ccccc4C=Cc4ccccc43)CC2)CC1 [AT-1015] | 96.3% | 97.4% | 94.8% | 96.8% | 91.4% | 101% | 108% | 104% | 105% | 93.8% | 104% | 99.9% | 98.2% | 102% | 77% | 93.2% | 103% | 89.2% | 97.7% | 88.7% | 104% | 108% | 110% | 103% | 99.8% | 0 | 0 | 0.7 | 0 | 0 | > 10 µM | > 10 µM | > 10 µM | > 10 µM | > 10 µM
3 | COc1ccc2cc3[n+](cc2c1OC)CCc1cc2c(cc1-3)OCO2 [berberine] | 106% | 96.8% | 103% | 93.7% | 77.2% | 110% | 106% | 97.4% | 86.9% | 82.5% | 99.8% | 103% | 87.7% | 92.1% | 30.6% | 94.3% | 101% | 105% | 101% | 97.3% | 107% | 93% | 95.3% | 107% | 96.1% | 1.6 | 1.5 | 5.1 | 0 | 0 | > 10 µM | > 10 µM | 2.23 µM | > 10 µM | > 10 µM
